Laboratory results reported in patent US8501842B2, “Polypropylene resin composition and molded article” (Sumitomo Chemical Company, Limited, priority 2007, dated 2013).

Assay: Weight loss by thermogravimetric analysis (TG-DTA)
Assay type: physicochemical
Conditions: room temperature to 300° C. at 10° C./min, nitrogen gas atmosphere (100 ml/min)
Protocol: Regarding requirement (c), from the viewpoint of the staining of a mold, the emitted amount of VOC, and the stability against photodegradation, the weight loss measured in a thermogravimetric analysis at a temperature of 300° C. under a nitrogen gas atmosphere preferably is less than 5% by weight, and more preferably is less than 3% by weight. The weight loss measured by the thermogravimetric analysis of a hindered amine light stabilizer (C) is a value determined by using a thermo gravimetry differential thermal analyzer (TG-DTA). Described concretely, it is a weight loss rate determined using a thermobalance when the temperature of a hindered amine light stabilizer (C) is increased from room temperature to 300° C. at a rate of 10° C. per minute under a nitrogen gas atmosphere (in a nitrogen flow at a flow rate of 100 ml/min).
The weight loss by thermogravimetric analysis (TG-DTA) of a hindered amine light stabilizer was measured with a thermo gravimetry differential thermal analyzer from room temperature to 300° C. at a temperature increasing rate of 10° C./min under a nitrogen gas atmosphere (100 ml/min).

Weight loss by thermogravimetric analysis (TG-DTA)	Molecule
5.8 % by weight	CN1C(C)(C)CC(OC(=O)CC(C(=O)OC2CC(C)(C)N(C)C(C)(C)C2)C(CC(=O)OC2CC(C)(C)N(C)C(C)(C)C2)C(=O)OC2CC(C)(C)N(C)C(C)(C)C2)CC1(C)C (stereo not drawn) [Example C-2, Tetrakis(1,2,2,6,6-pentamethyl-4-piperidyl) 1,2,3,4-butanetetracarboxylate]
31.6 % by weight	CC(C)(C)c1ccc(OC(=O)c2cc(C(C)(C)C)c(O)c(C(C)(C)C)c2)c(C(C)(C)C)c1 [Example C-3, 2,4-Di-tert-butylphenyl 3,5-di-tert-butyl-4-hydroxybenzoate]

Molecule	Weight loss by thermogravimetric analysis (TG-DTA)
Condensate of N,N-bis(3-aminopropyl)ethylenediamine-2,4-bis[N-butyl-N-(1,2,2,6,6-pentamethyl-4-piperidyl)amino]-6-chloro-1,3,5-triazine [Example C-5]	0.6 % by weight
